Literature values as cited in US20070123520A1 (priority 2005, published 2007).

Experiments:
methemoglobinemia = conditions: in vivo, iv, 1 mg/kg
[1] = in vivo
[2] = in vivo; remark: listed apart in the source
sheep = conditions: in vivo
[3] = in vivo; remark: listed apart in the source
[4] = in vivo; remark: listed apart in the source

In the case of `CC(=O)N[C@H]1[C@H]([C@H](O)[C@H](O)CO)OC(C(=O)O)=C[C@@H]1N=C(N)N` [zanamivir], the “activity against influenza A viruses” value (influenza A viruses) is listed as “activity”.
In the case of `CN(C)c1ccc2nc3ccc(N(C)C)cc3[s+]c2c1.[Cl-]` [methylene blue, 3,7-Bis(dimethylamino)-phenothiazin-5-ium chloride], the treatment of methemoglobinemia (methemoglobinemia) is given as “effective”, the “absorption from the GI tract” value [1] is given as “absorbed well” and the “Oral absorption (range)” value ([1]; po) is given as 53-97%. The “overall elimination rate constant” value [2] was 0.0076 ± 0.0016 min⁻¹, the methemoglobin production (sheep) was “minimal” and the hematologic changes (sheep; 30 mg/kg) was “no hematologic changes”. For the same molecule, the “crossing of the blood-milk barrier” value [3] was “crosses the blood-milk barrier easily”, the Side effects [4] was “blue urine, occasional nausea, anemia and fever” and the side effects [4] was “minimal side effects”.
For `NC12CC3CC(CC(C3)C1)C2` [amantadine], the “activity against influenza A viruses” value (influenza A viruses) is listed as “activity”.
In the case of `CC(N)C12CC3CC(CC(C3)C1)C2` (stereo not shown) [rimantadine], the “activity against influenza A viruses” value (influenza A viruses) is listed as “activity”.
In the case of `CCOC(=O)C1=C[C@@H](OC(CC)CC)[C@H](NC(C)=O)[C@@H](N)C1` [oseltamivir], the “activity against influenza A viruses” value (influenza A viruses) is listed as “activity”.
